Test results reported in patent publication US4690919A, “Benzoxazinorifamycin derivative, process for preparing the same and antibacterial agent containing the same” (Kanegafuchi Kagaku Kogyo Kabushiki Kaisha, priority 1985, dated 1987).
≈ marks a conversion by molar mass, not a printed value. Where two headings read alike, the source gives them in different places.

Legend:
[1] = system: Staphylococcus aureus IFO 12732; test: Antibacterial activity (MIC), standard method of Japan Society of Chemotherapy; assay type: cell-based
Source text: (§1) The results obtained from the typical compounds are shown in Table 2 as the minimum inhibitory concentration (MIC, μg/ml). […] In Table 2, Test compound No. corresponds to derivative No. in Table 1.

[2] = system: Klebsiella pneumoniae IFO 3512; test: as above; assay type: cell-based
Source text: as §1

[3] = system: Escherichia coli IFO 12734; test: as above; assay type: cell-based; conditions: IFO12734, read-out: minimum inhibitory concentration (MIC)
Source text: as §1

[4] = system: Micrococcus luteus IFO 12708; test: as above; assay type: cell-based
Source text: as §1

[5] = system: Mycobacterium smegmatis ATCC 607; test: as above; assay type: cell-based; conditions: Mycolicibacterium smegmatis
Source text: as §1

[6] = system: Bacillus subtilis IFO 3134; test: as above; assay type: cell-based
Source text: as §1

[7] = Concentration in serum after oral administration to rats; conditions: rat, 20 mg/kg
[8] = IFO12732, Staphylococcus aureus IFO 12732, read-out: minimum inhibitory concentration (MIC)
[9] = IFO3512, Klebsiella pneumoniae IFO 3512, read-out: minimum inhibitory concentration (MIC)
[10] = IFO12708, Micrococcus luteus IFO 12708, read-out: minimum inhibitory concentration (MIC)
[11] = ATCC607, Mycobacterium smegmatis ATCC 607, read-out: minimum inhibitory concentration (MIC)
[12] = IFO3134, Bacillus subtilis IFO 3134, read-out: minimum inhibitory concentration (MIC)

MIC [3]	MIC [1, 8]	MIC [2, 9]	MIC [4, 10]	MIC [5, 11]	MIC [6, 12]	concentration at 1 h [7]	concentration at 3 h [7]	concentration at 5 h [7]	Structure (SMILES)	MIC ([1]; Staphylococcus aureus, IFO12732, read-out: minimum inhibitory concentration (MIC))	MIC ([2]; Klebsiella pneumoniae, IFO3512, read-out: minimum inhibitory concentration (MIC))	MIC ([4]; Micrococcus luteus, IFO12708, read-out: minimum inhibitory concentration (MIC))	MIC ([5]; ATCC607, read-out: minimum inhibitory concentration (MIC))	MIC ([6]; Bacillus subtilis, IFO3134, read-out: minimum inhibitory concentration (MIC))
2.5 mg/L (≈ 2.88 µM)	≤ 0.02 mg/L	10 mg/L (≈ 11.5 µM)	≤ 0.02 mg/L	1.25 mg/L (≈ 1.44 µM)	≤ 0.02 mg/L	4.9 µg/mL	12.4 µg/mL	16.6 µg/mL	COC1C=COC2(C)Oc3c(C)c(O)c4c(=O)c(c5oc6cc(N7CCCCC7)ccc6nc-5c4c3C2=O)NC(=O)C(C)=CC=CC(C)C(O)C(C)C(O)C(C)C(OC(C)=O)C1C (stereo not drawn) [compound 19]					
1.25 mg/L (≈ 1.42 µM)	0.08 mg/L (≈ 0.0907 µM)	> 10 mg/L	≤ 0.02 mg/L	1.25 mg/L (≈ 1.42 µM)	0.04 mg/L (≈ 0.0454 µM)	3.2 µg/mL	5.7 µg/mL	4.9 µg/mL	COC1C=COC2(C)Oc3c(C)c(O)c4c(=O)c(c5oc6cc(N7CCCCCC7)ccc6nc-5c4c3C2=O)NC(=O)C(C)=CC=CC(C)C(O)C(C)C(O)C(C)C(OC(C)=O)C1C (stereo not drawn) [compound 20]					
> 10 mg/L	≤ 0.02 mg/L	> 10 mg/L	≤ 0.02 mg/L	1.25 mg/L (≈ 1.42 µM)	≤ 0.02 mg/L	2.1 µg/mL	6.1 µg/mL	5.2 µg/mL	COC1C=COC2(C)Oc3c(C)c(O)c4c(=O)c(c5oc6cc(N7CCCC(C)C7)ccc6nc-5c4c3C2=O)NC(=O)C(C)=CC=CC(C)C(O)C(C)C(O)C(C)C(OC(C)=O)C1C (stereo not drawn) [compound 23]					
> 10 mg/L	≤ 0.02 mg/L	> 10 mg/L	≤ 0.02 mg/L	1.25 mg/L (≈ 1.42 µM)	≤ 0.02 mg/L				COC1C=COC2(C)Oc3c(C)c(O)c4c(=O)c(c5oc6cc(N7CCC(C)CC7)ccc6nc-5c4c3C2=O)NC(=O)C(C)=CC=CC(C)C(O)C(C)C(O)C(C)C(OC(C)=O)C1C (stereo not drawn) [compound 24]					
						2.4 µg/mL	6.6 µg/mL	3.5 µg/mL	CCC1CCCCN1c1ccc2nc3c4c5c6c(C)c(O)c4c(=O)c(c-3oc2c1)NC(=O)C(C)=CC=CC(C)C(O)C(C)C(O)C(C)C(OC(C)=O)C(C)C(OC)C=COC(C)(O6)C5=O (stereo not drawn) [compound 25]					
> 10 mg/L	≤ 0.02 mg/L	> 10 mg/L	≤ 0.02 mg/L	1.25 mg/L (≈ 1.4 µM)	≤ 0.02 mg/L	1.8 µg/mL	6.4 µg/mL	1.7 µg/mL	COC1C=COC2(C)Oc3c(C)c(O)c4c(=O)c(c5oc6cc(N7CCCC(C)(C)C7)ccc6nc-5c4c3C2=O)NC(=O)C(C)=CC=CC(C)C(O)C(C)C(O)C(C)C(OC(C)=O)C1C (stereo not drawn) [compound 27]					
5 mg/L (≈ 5.17 µM)	≤ 0.02 mg/L	> 10 mg/L	≤ 0.02 mg/L	1.25 mg/L (≈ 1.29 µM)	≤ 0.02 mg/L				CCN(CC)C(=O)C1CCCN(c2ccc3nc4c5c6c7c(C)c(O)c5c(=O)c(c-4oc3c2)NC(=O)C(C)=CC=CC(C)C(O)C(C)C(O)C(C)C(OC(C)=O)C(C)C(OC)C=COC(C)(O7)C6=O)C1 (stereo not drawn) [compound 31]					
2.5 mg/L (≈ 2.89 µM)	0.08 mg/L (≈ 0.0924 µM)	> 10 mg/L	≤ 0.02 mg/L	1.25 mg/L (≈ 1.44 µM)	≤ 0.02 mg/L				COC1C=COC2(C)Oc3c(C)c(O)c4c(=O)c(c5oc6cc(N7CC=CCC7)ccc6nc-5c4c3C2=O)NC(=O)C(C)=CC=CC(C)C(O)C(C)C(O)C(C)C(OC(C)=O)C1C (stereo not drawn) [compound 37]					
0.63 mg/L (≈ 0.713 µM)	0.04 mg/L (≈ 0.0453 µM)	1.25 mg/L (≈ 1.42 µM)	≤ 0.02 mg/L	1.25 mg/L (≈ 1.42 µM)	0.04 mg/L (≈ 0.0453 µM)				COC1C=COC2(C)Oc3c(C)c(O)c4c(=O)c(c5oc6cc(N7CCN(C)CC7)ccc6nc-5c4c3C2=O)NC(=O)C(C)=CC=CC(C)C(O)C(C)C(O)C(C)C(OC(C)=O)C1C (stereo not drawn) [compound 39]					
2.5 mg/L (≈ 2.82 µM)	≤ 0.02 mg/L	10 mg/L (≈ 11.3 µM)	≤ 0.02 mg/L	1.25 mg/L (≈ 1.41 µM)	0.04 mg/L (≈ 0.0451 µM)				COC1C=COC2(C)Oc3c(C)c(O)c4c(=O)c(c5oc6cc(N7CCSCC7)ccc6nc-5c4c3C2=O)NC(=O)C(C)=CC=CC(C)C(O)C(C)C(O)C(C)C(OC(C)=O)C1C (stereo not drawn) [compound 45]					
> 10 mg/L	≤ 0.02 mg/L	> 10 mg/L	≤ 0.02 mg/L	1.25 mg/L (≈ 1.44 µM)	≤ 0.02 mg/L				COC1C=COC2(C)Oc3c(C)c(O)c4c(=O)c(c5oc6cc(N7CCCC7)cc(O)c6nc-5c4c3C2=O)NC(=O)C(C)=CC=CC(C)C(O)C(C)C(O)C(C)C(OC(C)=O)C1C (stereo not drawn) [compound 46]					
1.25 mg/L (≈ 1.54 µM)	≤ 0.02 mg/L	5 mg/L (≈ 6.16 µM)	≤ 0.02 mg/L	1.25 mg/L (≈ 1.54 µM)	≤ 0.02 mg/L	2.7 µg/mL	3.5 µg/mL	2.8 µg/mL	COC1C=COC2(C)Oc3c(C)c(O)c4c(=O)c(c5oc6cc(N7CCCC7)ccc6nc-5c4c3C2=O)NC(=O)C(C)=CC=CC(C)C(O)C(C)C(O)C(C)C(O)C1C (stereo not drawn) [compound 49]					
						0.7 µg/mL	2.4 µg/mL	2.8 µg/mL	COC1C=COC2(C)Oc3c(C)c(O)c4c(=O)c(c5oc6cc(N7CCCCC7)ccc6nc-5c4c3C2=O)NC(=O)C(C)=CC=CC(C)C(O)C(C)C(O)C(C)C(O)C1C (stereo not drawn) [compound 50]					

The next lines start with the compound.

Structure (SMILES)	MIC [3]	MIC [1, 8]	MIC [2, 9]	MIC [4, 10]	MIC [5, 11]	MIC [6, 12]	concentration at 1 h [7]	concentration at 3 h [7]	concentration at 5 h [7]	MIC ([1]; Staphylococcus aureus, IFO12732, read-out: minimum inhibitory concentration (MIC))	MIC ([2]; Klebsiella pneumoniae, IFO3512, read-out: minimum inhibitory concentration (MIC))	MIC ([4]; Micrococcus luteus, IFO12708, read-out: minimum inhibitory concentration (MIC))	MIC ([5]; ATCC607, read-out: minimum inhibitory concentration (MIC))	MIC ([6]; Bacillus subtilis, IFO3134, read-out: minimum inhibitory concentration (MIC))
CO[C@H]1/C=C/O[C@@]2(C)Oc3c(C)c(O)c4c(O)c(c(/C=N/N5CCN(C)CC5)c(O)c4c3C2=O)NC(=O)/C(C)=C\C=C\[C@H](C)[C@H](O)[C@@H](C)[C@@H](O)[C@@H](C)[C@H](OC(C)=O)[C@@H]1C [Rifampicin, reference compound]	10 mg/L (≈ 12.2 µM)									≤ 0.02 mg/L	5 mg/L (≈ 6.08 µM)	≤ 0.02 mg/L	10 mg/L (≈ 12.2 µM)	0.04 mg/L (≈ 0.0486 µM)
CCN(C)c1ccc2nc3c4c5c6c(C)c(O)c4c(=O)c(c-3oc2c1)NC(=O)C(C)=CC=CC(C)C(O)C(C)C(O)C(C)C(OC(C)=O)C(C)C(OC)C=COC(C)(O6)C5=O (stereo not drawn) [compound 2]	1.25 mg/L (≈ 1.48 µM)	≤ 0.02 mg/L	2.5 mg/L (≈ 2.97 µM)	≤ 0.02 mg/L	1.25 mg/L (≈ 1.48 µM)	0.04 mg/L (≈ 0.0475 µM)	3 µg/mL	5.4 µg/mL	3 µg/mL					
CCN(CC)c1ccc2nc3c4c5c6c(C)c(O)c4c(=O)c(c-3oc2c1)NC(=O)C(C)=CC=CC(C)C(O)C(C)C(O)C(C)C(OC(C)=O)C(C)C(OC)C=COC(C)(O6)C5=O (stereo not drawn) [compound 3]	2.5 mg/L (≈ 2.92 µM)	≤ 0.02 mg/L	5 mg/L (≈ 5.84 µM)	≤ 0.02 mg/L	1.25 mg/L (≈ 1.46 µM)	≤ 0.02 mg/L	1.8 µg/mL	3.3 µg/mL	1.3 µg/mL					
CCCN(CCC)c1ccc2nc3c4c5c6c(C)c(O)c4c(=O)c(c-3oc2c1)NC(=O)C(C)=CC=CC(C)C(O)C(C)C(O)C(C)C(OC(C)=O)C(C)C(OC)C=COC(C)(O6)C5=O (stereo not drawn) [compound 4]	> 10 mg/L	≤ 0.02 mg/L	> 10 mg/L	≤ 0.02 mg/L	1.25 mg/L (≈ 1.41 µM)	0.08 mg/L (≈ 0.0905 µM)	2 µg/mL	8.5 µg/mL	2.1 µg/mL					
CCOCCN(CCOCC)c1ccc2nc3c4c5c6c(C)c(O)c4c(=O)c(c-3oc2c1)NC(=O)C(C)=CC=CC(C)C(O)C(C)C(O)C(C)C(OC(C)=O)C(C)C(OC)C=COC(C)(O6)C5=O (stereo not drawn) [compound 9]	5 mg/L (≈ 5.3 µM)	≤ 0.02 mg/L	10 mg/L (≈ 10.6 µM)	≤ 0.02 mg/L	1.25 mg/L (≈ 1.32 µM)	≤ 0.02 mg/L	2.1 µg/mL	5.4 µg/mL	1.8 µg/mL					
COC(CN(C)c1ccc2nc3c4c5c6c(C)c(O)c4c(=O)c(c-3oc2c1)NC(=O)C(C)=CC=CC(C)C(O)C(C)C(O)C(C)C(OC(C)=O)C(C)C(OC)C=COC(C)(O6)C5=O)OC (stereo not drawn) [compound 11]	> 10 mg/L	≤ 0.02 mg/L	5 mg/L (≈ 5.54 µM)	≤ 0.02 mg/L	2.5 mg/L (≈ 2.77 µM)	≤ 0.02 mg/L	2.9 µg/mL	3.4 µg/mL	1 µg/mL					
COC1C=COC2(C)Oc3c(C)c(O)c4c(=O)c(c5oc6cc(N(C)C7CCCCC7)ccc6nc-5c4c3C2=O)NC(=O)C(C)=CC=CC(C)C(O)C(C)C(O)C(C)C(OC(C)=O)C1C (stereo not drawn) [compound 12]	> 10 mg/L	≤ 0.02 mg/L	> 10 mg/L	≤ 0.02 mg/L	1.25 mg/L (≈ 1.4 µM)	≤ 0.02 mg/L								
COC1C=COC2(C)Oc3c(C)c(O)c4c(=O)c(c5oc6cc(N7CCC7)ccc6nc-5c4c3C2=O)NC(=O)C(C)=CC=CC(C)C(O)C(C)C(O)C(C)C(OC(C)=O)C1C (stereo not drawn) [compound 17]	2.5 mg/L (≈ 2.98 µM)	≤ 0.02 mg/L	2.5 mg/L (≈ 2.98 µM)	≤ 0.02 mg/L	0.63 mg/L (≈ 0.75 µM)	≤ 0.02 mg/L	4.1 µg/mL	3.7 µg/mL	2.5 µg/mL					
COC1C=COC2(C)Oc3c(C)c(O)c4c(=O)c(c5oc6cc(N7CCCC7)ccc6nc-5c4c3C2=O)NC(=O)C(C)=CC=CC(C)C(O)C(C)C(O)C(C)C(OC(C)=O)C1C (stereo not drawn) [compound 18]	2.5 mg/L (≈ 2.93 µM)	≤ 0.02 mg/L	5 mg/L (≈ 5.86 µM)	≤ 0.02 mg/L	1.25 mg/L (≈ 1.46 µM)	≤ 0.02 mg/L	2.3 µg/mL	4.9 µg/mL	3.4 µg/mL					
